Article PMC10099431 (ACS Omega, 2023)
Like-named read-outs stand apart in the source and are kept apart here.

Tests used:
[1] = Equilibrium mole fraction solubility of RST in {PEG400; assay type: physicochemical
[2] = assay type: physicochemical; settings: 298.15 K; for Gibbs energy of transfer of RST from neat water to the mixture / ΔsolnG°, standard Gibbs free energy of dissolution: 0.1 MPa
[3] = assay type: physicochemical; settings: for 100 δx1,3 (preferential solvation parameter of RST by PEG400) / D (derivative of the Gibbs energy of transfer) / G1,3 (Kirkwood–Buff integral, PEG400–RST) / G2,3 (Kirkwood–Buff integral, water–RST) / Vcor (correlation volume): 298.15 K, 0.1 MPa

solubility at 3 days ([1]; PEG400): 6500 µg/mL | solubility at 3 days ([1]; PEG400 + water cosolvent mixture): 4140 µg/mL | Gibbs energy of transfer of RST from neat water to {PEG400 + water} mixtures, range ([2]; all mixtures): −2.39 to −14.24 kJ·mol^–1 | Gibbs energy of transfer of RST from neat water to the mixture ([2]; w1 = 0.00 (neat water)): 0.00 kJ·mol^–1 | ΔsolnG°, standard Gibbs free energy of dissolution ([2]; w1 = 0.00 (neat water)): 32.36 kJ·mol^–1 | Gibbs energy of transfer of RST from neat water to the mixture ([2]; w1 = 0.10 PEG400): –2.39 kJ·mol^–1 | ΔsolnG°, standard Gibbs free energy of dissolution ([2]; w1 = 0.10 PEG400): 29.97 kJ·mol^–1 | Gibbs energy of transfer of RST from neat water to the mixture ([2]; w1 = 0.20 PEG400): –3.53 kJ·mol^–1 | ΔsolnG°, standard Gibbs free energy of dissolution ([2]; w1 = 0.20 PEG400): 28.83 kJ·mol^–1 | Gibbs energy of transfer of RST from neat water to the mixture ([2]; w1 = 0.30 PEG400): –5.49 kJ·mol^–1 | ΔsolnG°, standard Gibbs free energy of dissolution ([2]; w1 = 0.30 PEG400): 26.86 kJ·mol^–1 | Gibbs energy of transfer of RST from neat water to the mixture ([2]; w1 = 0.40 PEG400): –7.93 kJ·mol^–1 | ΔsolnG°, standard Gibbs free energy of dissolution ([2]; w1 = 0.40 PEG400): 24.42 kJ·mol^–1 | Gibbs energy of transfer of RST from neat water to the mixture ([2]; w1 = 0.50 PEG400): –8.49 kJ·mol^–1 | ΔsolnG°, standard Gibbs free energy of dissolution ([2]; w1 = 0.50 PEG400): 23.87 kJ·mol^–1 | Gibbs energy of transfer of RST from neat water to the mixture ([2]; w1 = 0.60 PEG400): –8.94 kJ·mol^–1 | ΔsolnG°, standard Gibbs free energy of dissolution ([2]; w1 = 0.60 PEG400): 23.42 kJ·mol^–1 | Gibbs energy of transfer of RST from neat water to the mixture ([2]; w1 = 0.70 PEG400): –9.46 kJ·mol^–1 | ΔsolnG°, standard Gibbs free energy of dissolution ([2]; w1 = 0.70 PEG400): 22.90 kJ·mol^–1 | Gibbs energy of transfer of RST from neat water to the mixture ([2]; w1 = 0.80 PEG400): –10.34 kJ·mol^–1 | ΔsolnG°, standard Gibbs free energy of dissolution ([2]; w1 = 0.80 PEG400): 22.02 kJ·mol^–1 | ΔsolnG°, standard Gibbs free energy of dissolution ([2]; w1 = 0.90 PEG400): 21.15 kJ·mol^–1 | Gibbs energy of transfer of RST from neat water to the mixture ([2]; w1 = 1.00 (neat PEG400)): –14.24 kJ·mol^–1 | ΔsolnG°, standard Gibbs free energy of dissolution ([2]; w1 = 1.00 (neat PEG400)): 18.12 kJ·mol^–1 | molecular radius r3 ([3]; calculated from molar volume): 0.5 nm | 100 δx1,3 (preferential solvation parameter of RST by PEG400) ([3]; x1 = 0.00): 0.00 | D (derivative of the Gibbs energy of transfer) ([3]; x1 = 0.00): –328.34 kJ·mol^–1 | G1,3 (Kirkwood–Buff integral, PEG400–RST) ([3]; x1 = 0.00): –2707.6 cm^3·mol^–1 | G2,3 (Kirkwood–Buff integral, water–RST) ([3]; x1 = 0.00): –313.7 cm^3·mol^–1 | Vcor (correlation volume) ([3]; x1 = 0.00): 1163 cm^3·mol^–1 | 100 δx1,3 (preferential solvation parameter of RST by PEG400) ([3]; x1 = 0.05): 0.01 | D (derivative of the Gibbs energy of transfer) ([3]; x1 = 0.05): –31.52 kJ·mol^–1 | G1,3 (Kirkwood–Buff integral, PEG400–RST) ([3]; x1 = 0.05): –488.9 cm^3·mol^–1 | G2,3 (Kirkwood–Buff integral, water–RST) ([3]; x1 = 0.05): –491.2 cm^3·mol^–1 | Vcor (correlation volume) ([3]; x1 = 0.05): 1589 cm^3·mol^–1 | 100 δx1,3 (preferential solvation parameter of RST by PEG400) ([3]; x1 = 0.10): 0.31 | D (derivative of the Gibbs energy of transfer) ([3]; x1 = 0.10): –9.90 kJ·mol^–1 | G1,3 (Kirkwood–Buff integral, PEG400–RST) ([3]; x1 = 0.10): –358.4 cm^3·mol^–1 | G2,3 (Kirkwood–Buff integral, water–RST) ([3]; x1 = 0.10): –412.8 cm^3·mol^–1 | Vcor (correlation volume) ([3]; x1 = 0.10): 1980 cm^3·mol^–1 | 100 δx1,3 (preferential solvation parameter of RST by PEG400) ([3]; x1 = 0.15): 0.71 | D (derivative of the Gibbs energy of transfer) ([3]; x1 = 0.15): –10.32 kJ·mol^–1 | G1,3 (Kirkwood–Buff integral, PEG400–RST) ([3]; x1 = 0.15): –353.1 cm^3·mol^–1 | G2,3 (Kirkwood–Buff integral, water–RST) ([3]; x1 = 0.15): –458.2 cm^3·mol^–1 | Vcor (correlation volume) ([3]; x1 = 0.15): 2343 cm^3·mol^–1 | 100 δx1,3 (preferential solvation parameter of RST by PEG400) ([3]; x1 = 0.20): 1.05 | D (derivative of the Gibbs energy of transfer) ([3]; x1 = 0.20): –9.89 kJ·mol^–1 | G1,3 (Kirkwood–Buff integral, PEG400–RST) ([3]; x1 = 0.20): –346.4 cm^3·mol^–1 | G2,3 (Kirkwood–Buff integral, water–RST) ([3]; x1 = 0.20): –492.0 cm^3·mol^–1 | Vcor (correlation volume) ([3]; x1 = 0.20): 2680 cm^3·mol^–1 | 100 δx1,3 (preferential solvation parameter of RST by PEG400) ([3]; x1 = 0.25): 1.29 | D (derivative of the Gibbs energy of transfer) ([3]; x1 = 0.25): –8.96 kJ·mol^–1 | G1,3 (Kirkwood–Buff integral, PEG400–RST) ([3]; x1 = 0.25): –339.9 cm^3·mol^–1 | G2,3 (Kirkwood–Buff integral, water–RST) ([3]; x1 = 0.25): –513.6 cm^3·mol^–1 | Vcor (correlation volume) ([3]; x1 = 0.25): 2997 cm^3·mol^–1 | 100 δx1,3 (preferential solvation parameter of RST by PEG400) ([3]; x1 = 0.30): 1.45 | D (derivative of the Gibbs energy of transfer) ([3]; x1 = 0.30): –7.95 kJ·mol^–1 | G1,3 (Kirkwood–Buff integral, PEG400–RST) ([3]; x1 = 0.30): –334.6 cm^3·mol^–1 | G2,3 (Kirkwood–Buff integral, water–RST) ([3]; x1 = 0.30): –529.0 cm^3·mol^–1 | Vcor (correlation volume) ([3]; x1 = 0.30): 3297 cm^3·mol^–1 | 100 δx1,3 (preferential solvation parameter of RST by PEG400) ([3]; x1 = 0.35): 1.54 | D (derivative of the Gibbs energy of transfer) ([3]; x1 = 0.35): –7.01 kJ·mol^–1 | G1,3 (Kirkwood–Buff integral, PEG400–RST) ([3]; x1 = 0.35): –330.5 cm^3·mol^–1 | G2,3 (Kirkwood–Buff integral, water–RST) ([3]; x1 = 0.35): –542.0 cm^3·mol^–1 | Vcor (correlation volume) ([3]; x1 = 0.35): 3585 cm^3·mol^–1 | 100 δx1,3 (preferential solvation parameter of RST by PEG400) ([3]; x1 = 0.40): 1.60 | D (derivative of the Gibbs energy of transfer) ([3]; x1 = 0.40): –6.19 kJ·mol^–1 | G1,3 (Kirkwood–Buff integral, PEG400–RST) ([3]; x1 = 0.40): –327.6 cm^3·mol^–1 | G2,3 (Kirkwood–Buff integral, water–RST) ([3]; x1 = 0.40): –554.7 cm^3·mol^–1 | Vcor (correlation volume) ([3]; x1 = 0.40): 3863 cm^3·mol^–1
SMILES: CC(C)c1nc(N(C)S(C)(=O)=O)nc(-c2ccc(F)cc2)c1/C=C/[C@@H](O)C[C@@H](O)CC(=O)[O-].CC(C)c1nc(N(C)S(C)(=O)=O)nc(-c2ccc(F)cc2)c1/C=C/[C@@H](O)C[C@@H](O)CC(=O)[O-].[Ca+2] [RST, (E)-7-[4-(4-fluorophenyl)-6-isopropyl-2-[methyl(methylsulfonyl)amino]pyrimidin-5-yl]-(3R,5S)-3,5-dihydroxyhept-6-enoic acid, calcium salt (2:1)]
